In brackets after ≈: the same amount, converted by molar mass. Entries after “also recorded” stand apart in the source; their conditions may differ. Where two headings read alike, the source gives them in different places.
How the values were obtained:
[1] = tested on: Lactobacillus and Bifidobacterium populations; conditions: simple faecal fermentations; concentrations required to kill C. difficile; cited from earlier work
[2] = tested on: C. difficile ribotypes 001, 106 and 027; assay: Determination of minimum inhibitory concentrations; format: cell-based
Lb. casei 338 = format: cell-based
bifidobacteria strains = format: cell-based
Gram negative organisms = format: cell-based; conditions: WDA
Experimental: B. thuringiensis DPC 6431 was grown aerobically from stock for ˜6 h in BHI broth and sub-cultured into fresh BHI at 0.1% for 18 h in BHI. Following growth, the culture was centrifuged twice at 8200 g for 10 min. Activity was determined using the well diffusion assay (WDA) as described by Ryan et al., (1996). Activity against a range of target organisms was determined by WDA. Cultures were grown over-night in various broth media and temperatures as outlined in Table 1. Twenty ml of the appropriate agar medium was inoculated with 100 μl of target organism and, once solidified, 50 μl of the cell free supernatant (CFS) of B. thuringiensis DPC 6431 was added to a well made in the agar. Plates were incubated under conditions appropriate for the various target organisms as outlined in Table 1. Zones of inhibition (mm) were measured and relative sensitivity determined by measuring the diameter of the zone. Zones of size ≦9 mm were designated +; of 10-15 mm were designated ++; of 16-21 mm were designated +++; of ≧22 mm were designated ++++;

[3] = Stability in simulated gastric, ileal and colon juice; format: in vitro ADME; conditions: 37° C., 1 mg/ml, WDA
Experimental: Effect of simulated gastric, ileal and colon juice on stability of thuricin CD C. difficile 64539 was grown overnight and inoculated at 1.25% into Reinforced Clostridium Agar (RCA). Simulated gastric, ileal and colon juice were prepared as outlined by Breumer et al (1992). Purified thuricin CD was made up to 100 mg/ml in 70% IPA. Seventy μl (1 mg/ml final concentration) of thuricin was added to 7000 μl of porcine gastric and ileum juice and incubated at 37° C. At intervals samples were taken and activity was measured with the WDA using C. difficile seeded plates. The samples were also assayed for the presence of the Trn-α and Trn-β peptides using MALDI-TOF MS

C. difficile = assay: Lysis of C. difficile by thuricin CD; format: cell-based
Experimental: The lytic effect of thuricin CD on C. difficile was carried out as described by Rea et at (2007).

Heat sensitivity = format: physicochemical
Experimental: (§1) Activity over a range of pH was determined in CFS by adjusting pH from 2 to 9 using either 0.5M HCl or 1M NaOH. The effect of acid or base on the target organism was determined using uninoculated broth medium adjusted through the pH range. Activity was determined using WDA assay using C. difficile ATCC 43593 as the target strain. Heat sensitivity was determined by heating the CFS for 15 min at a range of temperatures from 37° C. to 100° C.; the control was incubated at 37° C. Activity was determined using WDA with C. difficile ATCC 43593 as the target organism.

B. lactis Bb12 = format: cell-based
C. difficile R027 NAP1 = assay: Kill curves; format: cell-based
Experimental: The effect of thuricin against C. difficile R027 NAP1, L. monocytogenes NCTC 5348, Lb. casei 338 and B. lactis Bb12 was determined in Reinforced Clostridium Medium (RCM Merck), Brain Heart Infusion broth (Merck), MRS (de Mann-Rogosa-Sharpe) medium (Difco) and MRS containing 0.05% cystein respectively. Three independent cultures were prepared for each strain and grown overnight at 37° C. Three replicate one ml volumes of sterile double strength broth medium was prepared for each strain and inoculated with the test organisms to give initial cell numbers of 10^5-10^6/ml. Thuricin was added to give the required concentration and the volume made up to 2 ml with sterile distilled water. The bacteriocin was omitted from the control and volume substituted with sterile water. Samples were removed at intervals, serially diluted and plated on RCA, BHI agar, MRS agar or MRS agar containing 0.05% cystein depending on the strain. Plates were counted after 24 h (L. monocytogenes), or 48 h (C. difficile, Lb. casei 338 and B. lactis Bb12) incubation at 37° C.

[4] = Activity over a range of pH; format: physicochemical
Experimental: as §1

[5] = Stability in ex vivo porcine gastric and ileal juice; format: in vitro ADME; conditions: 37° C., 1 mg/ml, WDA
Experimental: Effect of ex vivo porcine gastric and ileal juice on the stability of the thuricin CD C. difficile 64539 was grown overnight and inoculated at 1.25% into Reinforced Clostridium Agar (RCA). Purified Thuricin CD was prepared as described above. Seven ml of porcine ileal and gastric juice was centrifuged for 15 min at 12,000 rpm to remove debris. Seventy μl (1 mg/ml) of thuricin was added to 7000 μl of porcine gastric and ileum juice and incubated at 37° C. At intervals samples were taken and activity was measured using the WDA and checked for the presence of the Trn-α and Trn-β peptides using MALDI-TOF MS.

Bifidobacteria = assay: Model faecal fermentation; format: cell-based, Bifidobacterium sp.; conditions: up to 16 hr incubation
Experimental: (§2) Faecal growth medium was prepared as described by Fooks and Gibson (2003) with minor modifications as follows. The ingredients were made up to 800 ml, the pH adjusted to 6.8. One hundred and sixty ml was added to each fermentation vessel and autoclaved at 121° C. for 15 min. Prior to inoculation the faecal medium was sparged with O2-free nitrogen for ˜1 h. A 20% faecal slurry was made from a fresh faecal sample in 50 mM phosphate buffer containing 0.05% cystein which has been previously boiled and cooled just prior to use and mixed using a stomacher for no longer than 1 min. Two fermentor vessels were inoculated with 35 ml of the slurry preparation and 2 ml of the overnight culture of C. difficile. To the test vessel 1 ml of 100 mg/ml thuricin was added at 0, 8 and 16 h incubation and both vessels sampled at 0, 4, 8, 12, 16, 20 and 24 h for both microbiological analyses of C. difficile and Bifidobacteria sp. Samples were also taken for analysis of thuricin activity using WDA and MALDI-TOF MS.
(§3) C. difficile was enumerated on CCEY agar (LabM) and Bifidobacterium sp. on modified MRS agar containing 0.05% cystein and 50 mg mupirocin/1 after 48 h and 72 h at 37° C. incubation respectively.

[6] = tested on: C. difficile DPC 6537 (PCR ribotype 001); assay: Model faecal fermentation; format: cell-based; conditions: 500 μg thuricin added at 0, 8, and 16 hr; spiked with 10^6 cfu C. difficile ribotype 001/ml; after 16 hr incubation
Experimental: C. difficile DPC 6537 (PCR Ribot e 001) was taken from −80° C. stock and streaked on Fastidious Anaerobic Agar and incubated anaerobically at 37° C. On the night before the experiment ˜1 colony was inoculated into 10 ml of RCM which has been previously boiled and cooled and incubated anaerobically at 37° C.
as §2, with “To the test vessel 1 ml of 100 mg/ml thuricin was added at 0, 8 and 16 h incubation and both vessels sampled at 0, 4, 8, 12, 16, 20 and 24 h for both microbiological analyses of C. difficile and Bifidobacteria sp.” left out
as §3

[7] = tested on: L. monocytogenes NCTC 5348; format: cell-based
[8] = Sensitivity to enzymatic degradation; format: in vitro ADME; conditions: FIG. 1; Proteinase K (6.5 mg/ml) applied to the edge of the well
Experimental: The cell free supernatant was tested for sensitivity to the following enzymes at a concentration of 25 mg/ml: pepsin, trypsin, peptidase, α-chymotrypsin type V111, α-chymotrypsin type 11 and proteinase K. All enzymes were purchased from Sigma. Cell free supernatants were incubated with the enzymes for 1 h at 37° C. Activity post enzyme treatment was determined using the well diffusion method using C. difficile ATCC 43593 as the target organism. Sensitivity of the antimicrobial to Proteinase K was also determined by applying 5 μl of Proteinase K (6.5 mg/ml) to the edge of the well containing the sample.

[9] = C. difficile ribotype 001, 16 h at 37° C. anaerobically, read-out: MIC
[10] = C. difficile ribotype 106, 16 h at 37° C. anaerobically, read-out: MIC

lacticin 3147
Effect on Lactobacillus and Bifidobacterium populations [1]: 3 log cycles

Cc1ncc([N+](=O)[O-])n1CCO [Metronidazole, metronidazole]
MIC ([2]; Clostridioides difficile, 16 h, C. difficile ribotype 001, 16 h at 37° C. anaerobically, read-out: MIC): 3.12 µM (≈ 0.535 µg/mL) | MIC ([2]; Clostridioides difficile, 16 h, C. difficile ribotype 027, 16 h at 37° C. anaerobically, read-out: MIC): 3.12 µM (≈ 0.535 µg/mL) | MIC ([2]; Clostridioides difficile, 16 h, C. difficile ribotype 106, 16 h at 37° C. anaerobically, read-out: MIC): 1.56 µM (≈ 0.267 µg/mL)

Thuricin CD
Effect on viability of Lb. casei 338 (Lb. casei 338): no effect; also recorded: did not affect | MIC [2, 9]: 0.097 µM | MIC ([2]; C. difficile ribotype 027, 16 h at 37° C. anaerobically, read-out: MIC): 0.012 µM | MIC [2, 10]: 0.125 µM | Sensitivity of bifidobacteria strains tested (bifidobacteria strains): No bifidobacteria strains tested were sensitive | Activity against Gram negative organisms tested (Gram negative organisms): no activity | Activity after incubation in simulated gastric juice ([3]; 2 hours): no reduction of activity | Activity after incubation in simulated ileal juice ([3]; 4 hours): no reduction of activity | Activity after incubation in simulated colon juice ([3]; 9 hours): no reduction of activity | Effect on OD600 nm of logarithmically growing C. difficile (C. difficile): gradual reduction of OD600 nm | Acetate kinase in the growth medium (lysis) (C. difficile; logarithmically growing C. difficile): release of the intracellular enzyme acetate kinase | Activity after heating at 90° C. (Heat sensitivity): reduction of activity | Activity after heating at 100° C. (Heat sensitivity): loss of activity | Temperature up to which heat stable / activity retained (Heat sensitivity): up to 95 °C | Temperature up to which heat-stable (Heat sensitivity): about 85 ° Centigrade | Effect on viability of B. lactis BB12 (B. lactis Bb12): no effect; also recorded: did not affect | Time within which approximately 5×10^6 CFU of C. difficile per ml are killed (C. difficile R027 NAP1; 5 μM): ≤ 60 minutes | Time to reduce viable cells from ˜10^6/ml to zero (C. difficile R027 NAP1; 200 AU thuricin/ml, C. difficile PCR ribotype 027): ≤ 2 h | Time within which approximately 5×10^6 CFU of C. difficile per ml are killed (C. difficile R027 NAP1; 200 AU/ml): ≤ 180 minutes | Time within which ˜5×10^6 cfu of C. difficile per ml were killed (C. difficile R027 NAP1; 200 AU/ml): ≤ 180 min | pH range in which active [4]: 2-10 | Activity after incubation in ex vivo porcine gastric juice ([5]; 2 hr): no reduction in activity | Activity after incubation in ex vivo porcine ileal juice ([5]; 5 hr): no reduction in activity | Effect on numbers of Bifidobacteria relative to control (Bifidobacteria): did not affect | Reduction of C. difficile compared with the control [6]: over 1000 fold | Reduction of cell numbers of L. monocytogenes [7]: 1.5 log cycles | Activity on treatment with Proteinase K [8]: lost

CN[C@H](CC(C)C)C(=O)N[C@H]1C(=O)N[C@@H](CC(N)=O)C(=O)N[C@H]2C(=O)N[C@H]3C(=O)N[C@H](C(=O)N[C@H](C(=O)O)c4cc(O)cc(O)c4-c4cc3ccc4O)[C@H](O)c3ccc(c(Cl)c3)Oc3cc2cc(c3O[C@@H]2O[C@H](CO)[C@@H](O)[C@H](O)[C@H]2O[C@H]2C[C@](C)(N)[C@H](O)[C@H](C)O2)Oc2ccc(cc2Cl)[C@H]1O [Vancomycin, vancomycin]
MIC [2, 9]: 0.39 µM (≈ 0.565 µg/mL) | MIC [2, 10]: 0.39 µM (≈ 0.565 µg/mL) | MIC ([2]; Clostridioides difficile, 16 h): 0.39 µM (≈ 0.565 µg/mL)

From patent US8852917B2, “Thuricin CD, an antimicrobial for specifically targeting Clostridium difficile” (University College Cork, priority 2007, dated 2014)
